Test results as given in patent US10787444B2, “Compounds for the modulation of myc activity” (Syros Pharmaceuticals, Inc., priority 2015, dated 2020).
Counter-ions that a name gives are not always drawn. Like-named read-outs stand apart in the source and are kept apart here.

Legend:
[1] = test system: human small lung cancer cell line H2171; assay: Cell Viability Assay (ATPlite); type: cell-based; conditions: H2171 cells, three days, ATPlite, calculated IC50 class, read-out: H2171 Activity
Description: Compounds of the invention were assayed for cell viability using the human small lung cancer cell line H2171 as described in the following protocol. Cells were counted and adjusted to 20,000 cells/mL. Using a Biotek EL406, 50 μL of cells in media were distributed into 384 well white plates from Thermo. Immediately after plating, compound in DMSO was distributed to plates. Compounds were added to plates using a 50 nL 384 well pin transfer manifold on a Janus workstation. Stocks were arrayed in 10 point dose response in DMSO stock in 384 well Greiner compound plates. After the addition of compounds, plates were incubated for three days in a 37° C. incubator. Cell viability was read out using ATPlite from Perkin Elmer. Lyophilized powder was resuspended in lysis buffer and diluted 1:2 with deionized water. 25 μL of this solution was added to each well using the Biotek liquid handler. Plates were incubated for 15 minutes at room temperature before signal was read on an Envision Plate Reader. The data from this assay are summarized in Tables 2 and 3 below (H2171 activity).

c-Myc/Max/Ebox DNA = target: T1, c-Myc/Max/Ebox DNA (Homo sapiens, UniProt P01106); assay: c-Myc/Max/Ebox DNA AlphaScreen Assay; type: binding; conditions: calculated IC50 class
T1 construct: his6 (cleaved yes)
T1 sequence (P01106 whole entry): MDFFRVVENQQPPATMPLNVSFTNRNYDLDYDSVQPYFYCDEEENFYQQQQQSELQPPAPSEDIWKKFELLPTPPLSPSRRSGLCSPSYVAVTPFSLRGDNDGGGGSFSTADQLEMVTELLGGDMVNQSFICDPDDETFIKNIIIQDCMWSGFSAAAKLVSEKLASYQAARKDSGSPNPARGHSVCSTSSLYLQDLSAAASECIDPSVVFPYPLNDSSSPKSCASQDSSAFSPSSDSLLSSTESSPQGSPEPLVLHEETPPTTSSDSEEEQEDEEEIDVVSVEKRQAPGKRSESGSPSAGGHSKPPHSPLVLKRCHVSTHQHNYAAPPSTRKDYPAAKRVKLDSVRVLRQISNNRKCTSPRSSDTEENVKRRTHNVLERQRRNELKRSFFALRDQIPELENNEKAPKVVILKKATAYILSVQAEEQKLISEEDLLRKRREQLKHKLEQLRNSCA
Description: Compounds of the invention were assayed for c-Myc/Max/EBox activity as described in the following protocol. Human his6-c-Myc and his6-Max were used with biotinylated DNA containing a single Ebox sequence (biotin[…]) purchased from MWG Operon. Free c-Myc was generated from his6-c-Myc through thrombin cleavage of the his6 tag. For 384-well plate assays, 10 μL of a 2× solution of free c-Myc (20 nM final), Ni^2+ coated Acceptor Beads (25 μg/ml final), and biotinylated Ebox oligo (10 nM final) were added to 384-well plates with a Biotek EL406 liquid handler. 50 nL of compounds from stock plates were added by pin transfer using a Janus Workstation (PerkinElmer), allowing the compounds to interact with c-Myc prior to c-Myc binding with Max. In the current assay, DMSO was not allowed to exceed 2% v/v of the assay. 10 μl of 2× master mix containing streptavidin-coated donor beads (25 μg/ml final) and his6-Max (5 nM) were added. AlphaScreen measurements were performed on an Envision plate reader (PerkinElmer) utilizing the manufacturer's protocol.
Both master mixes were made in room temperature assay buffer (50 mM HEPES, 150 mM NaCl, 0.2% w/v BSA, 0.02% w/v Tween20, 40 μg/ml glycogen, 500 μM DTT, pH 8.0, wherein both DTT and glycogen were added fresh). Alpha beads were added to respective master solutions. All subsequent steps were performed in low light conditions. Solution 1:2× solution of components with final concentrations of c-Myc Ni-coated Acceptor Beads (25 μg/ml), and biotinylated Ebox oligo (10 nM). Solution 2:2× solution of streptavidin-coated donor beads (25 μg/ml final) and his6-Max 10 μL. […] 50 nL of compounds from stock plates were added by pin transfer using a Janus Workstation. Solution 2 (10 μl) was added with the liquid handler. Plates were sealed with foil to block light exposure and prevent evaporation. Plates were very briefly centrifuged followed by 2 hour incubation. […] Excitation was at 680 nm for donor bead release of singlet oxygen and emission was read with a bandpass filter from 520-620 nm.

[2] = Homo sapiens, NCI-H2171, 72 h, Table 2, compounds of FIG. 1
[3] = Homo sapiens, NCI-H2171, 72 h, Table 3, compounds of FIG. 2

| Compound | IC50 (c-Myc/Max/Ebox DNA; Table 2, compounds of FIG. 1) | IC50 [1, 2] | further results |
| --- | --- | --- | --- |
| COCCNCCC(=O)Nc1sc2c(c1-c1nc3cc(-c4ccncc4)ccc3s1)CC(C)NC2C (single isomer, unassigned) [Compound 522, N-(5,7-dimethyl-3-(5-(pyridin-4-yl)benzo[d]thiazol-2-yl)-4,5,6,7-tetrahydrothieno[2,3-c]pyridin-2-yl)-3-((2-methoxyethyl)amino)propanamide] | < 0.3 µM |  | IC50 ([1]; Table 2, compounds of FIG. 1): < 0.3 µM |
| CC[C@H](C)NCCC(=O)Nc1sc2c(c1-c1nc3cc(C(F)(F)F)ccc3s1)CC(C)NC2C (single isomer, unassigned) [Compound 584] | < 0.3 µM | < 0.3 µM |  |
| CC(=O)Nc1sc2c(c1-c1nc3c(C)cccc3s1)CCNC2 [Compound 225, N-(3-(4-methylbenzo[d]thiazol-2-yl)-4,5,6,7-tetrahydrothieno[2,3-c]pyridin-2-yl)acetamide] |  |  | IC50 [1, 3]: < 0.3 µM; IC50 (c-Myc/Max/Ebox DNA; Table 3, compounds of FIG. 2): 0.3 to 1 µM |
| CN(C)CCC(=O)Nc1sc2c(c1-c1nc3ccccc3s1)CCNC2 [Compound 130, N-(3-(benzo[d]thiazol-2-yl)-4,5,6,7-tetrahydrothieno[2,3-c]pyridin-2-yl)-3-(dimethylamino)propanamide] | < 0.3 µM | < 0.3 µM |  |
| COCCNCCC(=O)Nc1sc2c(c1-c1nc3cc(C(F)(F)F)ccc3s1)CCN(C(C)C)C2 [Compound 575, N-(6-Isopropyl-3-(5-(trifluoromethyl)benzo[d]thiazol-2-yl)-4,5,6,7-tetrahydrothieno[2,3-c]pyridin-2-yl)-3-((2-methoxyethyl)amino) propanamide] | < 0.3 µM | < 0.3 µM |  |
| CC(=O)Nc1sc2c(c1-c1nc3cc4c(cc3s1)OCO4)CCNC2 [Compound 237, N-(3-([1,3]Dioxolo[4′,5′:4,5]benzo[1,2-d]thiazol-6-yl)-4,5,6,7-tetrahydrothieno[2,3-c]pyridin-2-yl)acetamide] |  |  | IC50 [1, 3]: 0.3 to 1 µM; IC50 (c-Myc/Max/Ebox DNA; Table 3, compounds of FIG. 2): 1 to 10 µM |
| CC(C)NCCC(=O)Nc1sc2c(c1-c1nc3cc(C(=O)Nc4ccccc4)ccc3s1)CCNC2 [Compound 505, 2-(2-(3-(Isopropylamino)propanamido)-4,5,6,7-tetrahydrothieno[2,3-c]pyridin-3-yl)-N-phenylbenzo[d]thiazole-5-carboxamide] | 1 to 10 µM | < 0.3 µM |  |
| CC(C)N1CCc2c(sc(NC(=O)CCNC3CCCC3)c2-c2nc3ccccc3s2)C1 [Compound 542, N-(3-(Benzo[d]thiazol-2-yl)-6-isopropyl-4,5,6,7-tetrahydrothieno[2,3-c]pyridin-2-yl)-3-(cyclopentylamino)propanamide] |  | < 0.3 µM | IC50 ([1]; Table 2, compounds of FIG. 1, listed as 111): 1 to 10 µM |
| CCC(C)NCCC(=O)Nc1sc2c(c1-c1nc3cc(Br)ccc3s1)CCN(C(C)C)C2 (centres unmarked) [Compound 145, N-(3-(5-Bromobenzo[d]thiazol-2-yl)-6-isopropyl-4,5,6,7-tetrahydrothieno[2,3-c]pyridin-2-yl)-3-(sec-butylamino)propanamide] |  |  | IC50 ([1]; Table 2, compounds of FIG. 1): 0.3 to 1 µM |
| CCC(C)NCCC(=O)Nc1sc2c(c1-c1nc3cc(C(F)(F)F)ccc3s1)CCN(C(C)C)C2 (centres unmarked) [Compound 146, 3-(sec-butylamino)-N-(6-isopropyl-3-(5-(trifluoromethyl)benzo[d]thiazol-2-yl)-4,5,6,7-tetrahydrothieno[2,3-c]pyridin-2-yl)propanamide] |  |  | IC50 ([1]; Table 2, compounds of FIG. 1): < 0.3 µM |
| CCC(C)NCCC(=O)Nc1sc2c(c1-c1nc3cc(Br)ccc3s1)CCN(C(C)C)C2 (centres unmarked) [Compound 141, N-(3-(5-bromobenzo[d]thiazol-2-yl)-6-isopropyl-4,5,6,7-tetrahydrothieno[2,3-c]pyridin-2-yl)-3-(sec-butylamino)propanamide] |  | 0.3 to 1 µM |  |
| CCOC(=O)CNCCC(=O)Nc1sc2c(c1-c1nc3ccccc3s1)CCNC2 [Compound 148, Ethyl (3-((3-(benzo[d]thiazol-2-yl)-4,5,6,7-tetrahydrothieno[2,3-c]pyridin-2-yl)amino)-3-oxopropyl)glycinate hydrochloride] |  | > 10 µM |  |
